Results from patent US10344025B2, “GLS1 inhibitors for treating disease” (Board of Regents, The University of Texas System, priority 2014, dated 2019).
Where two headings read alike, the source gives them in different places.

Columns and labels:
A549 cells = assay: Proliferation Assay (A549 viability, Cell Titer Fluor, 72 hours); format: cell-based
Summary of the method: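 Cell Titer Fluor fluorescence after 72 h compound treatment (0.5% DMSO, 37 °C, 5% CO2) of A549 cells plated 24 h earlier at 1000/well. Four-parameter logistic fitting gave IC50.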

[1] = target: purified recombinant human GAC (GLS1) (Homo sapiens (Human), UniProt O94925); assay: GLS1 Enzymatic Activity Assay (dual-coupled enzymatic assay, resorufin/Amplex UltraRed readout); format: biochemical;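 note: glutamate from GAC coupled via glutamate oxidase and peroxidase to resorufin, read as fluorescence (ex 530, em 590 nm) kinetically or at 20 min, four-parameter logistic IC50 fit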
Sequence of purified recombinant human GAC (GLS1) (O94925 other isoform, or with tags, fused parts or gaps): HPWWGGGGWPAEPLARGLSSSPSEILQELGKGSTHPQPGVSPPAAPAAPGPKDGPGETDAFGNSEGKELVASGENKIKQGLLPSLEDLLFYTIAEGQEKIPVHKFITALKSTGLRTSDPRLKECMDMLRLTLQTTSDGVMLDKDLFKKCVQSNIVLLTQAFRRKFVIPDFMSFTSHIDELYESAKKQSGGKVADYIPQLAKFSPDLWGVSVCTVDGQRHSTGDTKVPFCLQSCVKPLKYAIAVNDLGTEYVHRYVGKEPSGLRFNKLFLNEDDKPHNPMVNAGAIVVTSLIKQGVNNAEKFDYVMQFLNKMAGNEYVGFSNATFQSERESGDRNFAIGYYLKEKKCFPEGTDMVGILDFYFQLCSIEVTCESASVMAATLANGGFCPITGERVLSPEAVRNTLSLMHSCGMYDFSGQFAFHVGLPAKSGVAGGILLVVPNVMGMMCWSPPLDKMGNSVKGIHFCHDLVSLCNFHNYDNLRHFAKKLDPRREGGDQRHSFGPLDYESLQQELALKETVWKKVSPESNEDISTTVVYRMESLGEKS

| EC50 (A549 cells) | IC50 [1] | EC50 (A549 cells; Homo sapiens, A549, 72 h) | SMILES |
| --- | --- | --- | --- |
| 500 to 5000 nM | 500 to 5000 nM |  | O=C(NCc1cccc(OC(F)(F)F)c1)c1cn(CCCCn2cc(C(=O)NCC3CC4CCC3O4)nn2)nn1 (stereo not drawn) [Example 115, N-{7-oxabicyclo[2.2.1]heptan-2-ylmethyl}-1-{4-[4-({[3-(trifluoromethoxy)phenyl]methyl}carbamoyl)-1H-1,2,3-triazol-1-yl]butyl}-1H-1,2,3-triazole-4-carboxamide] |
| 100 to 500 nM | < 100 nM |  | O=C(NCc1cccc(OC(F)(F)F)c1)c1cn(CCCCn2cc(C(=O)NCC3CC4CCC3O4)nn2)nn1 (stereo not drawn) [Example 116, N-{7-oxabicyclo[2.2.1]heptan-2-ylmethyl}-1-{4-[4-({[3-(trifluoromethoxy)phenyl]methyl}carbamoyl)-1H-1,2,3-triazol-1-yl]butyl}-1H-1,2,3-triazole-4-carboxamide] |
|  | 100 to 500 nM | 100 to 500 nM | O=C(NCc1cccc(OC(F)(F)F)c1)c1cn(CCCCn2cc(C(=O)NCC3CCCOC3)nn2)nn1 (stereo not drawn) [Example 117, N-(oxan-3-ylmethyl)-1-{4-[4-({[3-(trifluoromethoxy)phenyl]methyl}carbamoyl)-1H-1,2,3-triazol-1-yl]butyl}-1H-1,2,3-triazole-4-carboxamide] |
|  | 100 to 500 nM | 100 to 500 nM | O=C(NCc1cccc(OC(F)(F)F)c1)c1cn(CCCCn2cc(C(=O)NCC3CCCCO3)nn2)nn1 (stereo not drawn) [Example 118, N-(oxan-2-ylmethyl)-1-{4-[4-({[3-(trifluoromethoxy)phenyl]methyl}carbamoyl)-1H-1,2,3-triazol-1-yl]butyl}-1H-1,2,3-triazole-4-carboxamide] |
|  | 100 to 500 nM | 100 to 500 nM | O=C(NCc1cccc(C(F)(F)F)c1)c1cn(CCCCn2cc(C(=O)NCC3CCCOC3)nn2)nn1 (stereo not drawn) [Example 119, N-(oxan-3-ylmethyl)-1-{4-[4-({[3-(trifluoromethyl)phenyl]methyl}carbamoyl)-1H-1,2,3-triazol-1-yl]butyl}-1H-1,2,3-triazole-4-carboxamide] |
|  | 100 to 500 nM | 500 to 5000 nM | O=C(NCc1cccc(C(F)(F)F)c1)c1cn(CCCCn2cc(C(=O)NCC3CCOCC3)nn2)nn1 [Example 120, N-(oxan-4-ylmethyl)-1-{4-[4-({[3-(trifluoromethyl)phenyl]methyl}carbamoyl)-1H-1,2,3-triazol-1-yl]butyl}-1H-1,2,3-triazole-4-carboxamide] |
|  | 100 to 500 nM | 100 to 500 nM | O=C(NCc1cccc(C(F)(F)F)c1)c1cn(CCCCn2cc(C(=O)NCC3CCCCO3)nn2)nn1 (stereo not drawn) [Example 121, N-(oxan-2-ylmethyl)-1-{4-[4-({[3-(trifluoromethyl)phenyl]methyl}carbamoyl)-1H-1,2,3-triazol-1-yl]butyl}-1H-1,2,3-triazole-4-carboxamide] |
|  | < 100 nM | < 100 nM | O=C(NCc1cccc(OC(F)(F)F)c1)c1cn(CCCCn2cc(C(=O)NCc3ccnc(C(F)(F)F)c3)nn2)nn1 [Example 122, 1-{4-[4-({[3-(trifluoromethoxy)phenyl]methyl}carbamoyl)-1H-1,2,3-triazol-1-yl]butyl}-N-{[2-(trifluoromethyl)pyridin-4-yl]methyl}-1H-1,2,3-triazole-4-carboxamide] |
|  | < 100 nM | 100 to 500 nM | CC(C)(O)c1ccc(CNC(=O)c2cn(CCCCn3cc(C(=O)NCc4cccc(C5CC5)c4)nn3)nn2)cn1 [Example 123, N-[(3-cyclopropylphenyl)methyl]-1-{4-[4-({[6-(2-hydroxypropan-2-yl)pyridin-3-yl]methyl}carbamoyl)-1H-1,2,3-triazol-1-yl]butyl}-1H-1,2,3-triazole-4-carboxamide] |
|  | < 100 nM | < 100 nM | O=C(NCc1cccc(N2CCCC2)c1)c1cn(CCCCn2cc(C(=O)NCc3cc(C(F)(F)F)ccn3)nn2)nn1 [Example 124, 1-{4-[4-({[3-(pyrrolidin-1-yl)phenyl]methyl}carbamoyl)-1H-1,2,3-triazol-1-yl]butyl}-N-{[4-(trifluoromethyl)pyridin-2-yl]methyl}-1H-1,2,3-triazole-4-carboxamide] |
|  | < 100 nM | 100 to 500 nM | COCCOc1cccc(CNC(=O)c2cn(CCCCn3cc(C(=O)NCc4cc(C(F)(F)F)ccn4)nn3)nn2)c1 [Example 125, 1-{4-[4-({[3-(2-methoxyethoxy)phenyl]methyl}carbamoyl)-1H-1,2,3-triazol-1-yl]butyl}-N-{[4-(trifluoromethyl)pyridin-2-yl]methyl}-1H-1,2,3-triazole-4-carboxamide] |
|  | 100 to 500 nM | 100 to 500 nM | O=C(NCc1cccc(OC(F)(F)F)c1)c1cn(CCCCn2cc(C(=O)NCc3cnccn3)nn2)nn1 [Example 126, N-(pyrazin-2-ylmethyl)-1-{4-[4-({[3-(trifluoromethoxy)phenyl]methyl}carbamoyl)-1H-1,2,3-triazol-1-yl]butyl}-1H-1,2,3-triazole-4-carboxamide] |
|  | 100 to 500 nM | 500 to 5000 nM | O=C(NCc1ccnnc1)c1cn(CCCCn2cc(C(=O)NCc3cccc(OC(F)(F)F)c3)nn2)nn1 [Example 127, 1-(4-{4-[(pyridazin-4-ylmethyl)carbamoyl]-1H-1,2,3-triazol-1-yl}butyl)-N-{[3-(trifluoromethoxy)phenyl]methyl}-1H-1,2,3-triazole-4-carboxamide] |
|  | < 100 nM | < 100 nM | O=C(NCc1cccc(C2CC2)c1)c1cn(CCCCn2cc(C(=O)NCc3cc(C4CC4)ccn3)nn2)nn1 [Example 128, N-[(3-cyclopropylphenyl)methyl]-1-[4-(4-{[(4-cyclopropylpyridin-2-yl)methyl]carbamoyl}-1H-1,2,3-triazol-1-yl)butyl]-1H-1,2,3-triazole-4-carboxamide] |
|  | < 100 nM | < 100 nM | O=C(NCc1cccc(C2CC2)c1)c1cn(CCC(F)Cn2cc(C(=O)NCc3cc(C4CC4)ccn3)nn2)nn1 (stereo not drawn) [Example 129, N-[(3-cyclopropylphenyl)methyl]-1-[4-(4-{[(4-cyclopropylpyridin-2-yl)methyl]carbamoyl}-1H-1,2,3-triazol-1-yl)-3-fluorobutyl]-1H-1,2,3-triazole-4-carboxamide] |
|  | 100 to 500 nM | 100 to 500 nM | O=C(NCc1cc(C(F)(F)F)ccn1)c1cn(CC(F)CCn2cc(C(=O)N[C@H](CO)c3ccccc3)nn2)nn1 (stereo partly drawn) [Example 130, 1-[2-fluoro-4-(4-{[(1S)-2-hydroxy-1-phenylethyl]carbamoyl}-1H-1,2,3-triazol-1-yl)butyl]-N-1{[4-(trifluoromethyl)pyridin-2-yl]methyl}-1H-1,2,3-triazole-4-carboxamide] |
|  | 100 to 500 nM | 100 to 500 nM | C[C@@H](NC(=O)c1cn(CCC(F)Cn2cc(C(=O)NCc3cc(C(F)(F)F)ccn3)nn2)nn1)c1ccccc1 (stereo partly drawn) [Example 131, 1-[2-fluoro-4-(4-{[(1R)-1-phenylethyl]carbamoyl}-1H-1,2,3-triazol-1-yl)butyl]-N-{[4-(trifluoromethyl)pyridin-2-yl]methyl}-1H-1,2,3-triazole-4-carboxamide] |
|  | < 100 nM | < 100 nM | O=C(NCc1cccc(OC(F)F)c1)c1cn(CCCCn2cc(C(=O)NCc3cc(C(F)(F)F)ccn3)nn2)nn1 [Example 132, {4-[4-({[3-(difluoromethoxy)phenyl]methyl}carbamoyl)-1H-1,2,3-triazol-1-yl]butyl}-N-{[4-(trifluoromethyl)pyridin-2-yl]methyl}-1H-1,2,3-triazole-4-carboxamide] |
